Reference: US10335380B2, “Compounds suitable for the treatment of myeloproliferative neoplasms as well as methods for the diagnosis/prognosis of myeloproliferative neoplasms” (CNIC Fundacion Centro Nacional De investigaciones …, priority 2013, dated 2019)
Entries after “also recorded” stand apart in the source; their conditions may differ.

Key:
[1] = test system: Nes-creERT2;iDTA mice depleted in nestin+ cells; assay: BRL37344 treatment of Nes-creERT2;iDTA mice depleted in nestin+ cells, transplanted with MPN BM cells; format: in vivo, mouse; settings: BRL37344 for 6 weeks
Experimental: Age-matched, female wild-type C57BL/6J or Nes-gfp mice were used as recipients in bone marrow (BM) transplantation assays and for in vivo pharmacological treatments. […] Vehicle (saline solution) daily injections were performed in the same way. Unless indicated, treatment was initiated 4 weeks posttransplant, when animals evidenced peripheral blood signs of MPN. Mice were randomly distributed prior to treatment initiation, and disease development was monitored over time in peripheral blood samples, using an automated blood counter. […] The neuroprotective drug 4-methylcatechol (10 μg kg-1, i.p.) was injected once daily. The JAK inhibitor INCB018424 (S-Ruxilitinib, Abmole Bioscience) was administered by oral gavage (30 mg kg-1, twice per day separated 10-12 hours) in 0.5% hydroxypropylmethylcellulose (Sigma) after solubilisation in DMSO. The IL-1 receptor antagonist (Kineret, Sobi, Stockholm, Sweden) was administered by subcutaneous osmotic pumps (Alzet) infusing a continuous dosing of 40 mg kg-1 per day. Mice were sacrificed at different time points and subjected to complete necropsy; BM and spleen were analysed by histology and flow cytometry; femora and skull were used for immunostainings, and haematopoietic and stromal cells were additionally used for functional assays ex vivo.

[2] = test system: WT mice transplanted with control BM cells; assay: In vivo treatment of WT mice transplanted with control BM cells (normal haematopoiesis); set-up: species or system mouse
Experimental: Age-matched, female wild-type C57BL/6J or Nes-gfp mice were used as recipients in bone marrow (BM) transplantation assays and for in vivo pharmacological treatments. Lethally irradiated (12 Gy) recipient mice were transplanted with 2×10^6 BM cells from Mx-Cre;JAK2V617F mice induced with plpC 8 weeks before, or from Cre-negative mice as disease-free controls. […] Vehicle (saline solution) daily injections were performed in the same way. Unless indicated, treatment was initiated 4 weeks posttransplant, when animals evidenced peripheral blood signs of MPN. Mice were randomly distributed prior to treatment initiation, and disease development was monitored over time in peripheral blood samples, using an automated blood counter. […] Mice were sacrificed at different time points and subjected to complete necropsy; BM and spleen were analysed by histology and flow cytometry; femora and skull were used for immunostainings, and haematopoietic and stromal cells were additionally used for functional assays ex vivo.
BM cell extraction, flow cytometry and fluorescence-activated cell sorting For haematopoietic cell recovery, bones were crushed in a mortar, filtered through a 40-μm mesh to obtain single cell suspensions, and depleted of red blood cells by lysis in 0.15 M NH4Cl for 10 min at 4° C. […] Biotinylated antibodies were detected with fluorochrome-conjugated streptavidin (BD Biosciences). […]

Question: With `C[C@H](Cc1ccc(OCC(=O)O)cc1)NC[C@H](O)c1cccc(Cl)c1` [BRL37344, [4-[(2R)-2-[[(2R)-2-(3-clorophenyl)-2-hydroxyethyl]amino]propyl]phenoxy]acetic acid] as the compound, how does the “therapeutic effect of BRL37344 after in vivo depletion of nestin+ cells (blood counts)” value ([1]; Nes-creERT2;iDTA versus control mice) read?
Answer: The value was “reduces”.

Question: What about the “leukocytosis in mice depleted in nestin+ cells” value ([1]; started 2 weeks after transplantation combined with tamoxifen) of the same compound?
Answer: The value was “not rescued”.

Question: And the “blood counts in wild-type mice” value ([2]; BRL37344 2 mg kg-1 i.p. twice a day)?
Answer: Its value is “did not affect”.

Question: What about the “normal HSCs / normal haematopoiesis” value ([2]; long-term BRL37344 treatment, 16 weeks, 2 mg kg-1 twice a day i.p.) of the same compound?
Answer: Its value is “did not compromise; also recorded: does not compromise”.
